# Like-named read-outs stand apart in the source and are kept apart here.
# What was measured:
# AG031 P. aer. APH(3′)-II = test: Antibacterial activity, clinical isolate AG031; type: cell-based; design: unit not given here
# In short: (§1)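 Susceptibility was tested per CLSI aerobic dilution protocol using microbroth format, with the MIC taken as the end point.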
# [1] = system: Engineered E. coli pH425 rmtB; test: Activity against G1405-methylated 16S-rRNA, E. coli pH425 rmtB; type: cell-based
# In short: (§2)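 Broth microdilution per CLSI M07-A10; readout MIC.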
# AG163 E. coli APH(3′)-I = test: Antibacterial activity, clinical isolate AG163; type: cell-based
# In short: as §1
# AG003 E. coli AAC(3)-II = test: Antibacterial activity, clinical isolate AG003; type: cell-based
# In short: as §1
# [2] = system: human cytosolic ribosomes; test: in-vitro translation assay, human cytosolic ribosomes; type: biochemical
# In short: (§3)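 Cell-free translation; IC50 read-out. Mito = human chimeric ribosomes; cytosolic = rabbit reticulocyte ribosomes; bacterial ribosomes run in the same assay format.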
# AG001 E. coli WT = test: Antibacterial activity, clinical isolate AG001; type: cell-based; design: unit not given here
# In short: as §1
# [3] = system: AG212, Escherichia coli ATCC25922; test: MIC reference strain AG212; type: cell-based; conditions: Escherichia coli; reference strain ATCC25922; read-out: MIC AG212 E. coli
# In short: (§4)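 The method determines minimal inhibitory concentrations using the standard CLSI microdilution procedure in liquid medium.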
# [4] = system: Enterob. AG302 AAC(3)-II AAC(6′)-I rmtC; test: Activity against G1405-methylated 16S-rRNA, clinical isolate AG302; type: cell-based
# In short: as §2
# [5] = system: AG225, Acinetobacter baumannii pittii; test: MIC reference strain AG225; type: cell-based; conditions: Acinetobacter baumannii, reference strain; read-out: MIC AG225 A. baumannii
# In short: as §4
# ATCC19977 M. abcessus = test: MIC reference strain ATCC19977; type: cell-based; conditions: read-out: MIC ATCC19977 M. abcessus
# In short: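 Broth microdilution, CLSI dilution method for aerobic bacteria; read-out is minimal inhibitory concentration (MIC).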
# [6] = system: APH(3′, 5″) resistance determinant; test: Susceptibility to the APH(3′, 5″) resistance determinant; type: cell-based
# Excerpt: Minimal inhibitory concentrations (MIC) have been determined by broth microdilution assays (CLSI. Methods for Dilution Antimicrobial Susceptibility Tests for Bacteria That Grow Aerobically; Approved Standard—Tenth Edition. CLSI document M07-A10. Wayne, Pa.: Clinical and Laboratory Standards Institute; 2015.).
# The introduction of a formamido group results in compounds that display increased selectivity for the bacterial ribosome over the mitochondrial (wild type and A1555G mutant) ribosomes, predictive of reduced ototoxicity.
# [7] = system: AG039 MRSA AAC(6′)-I ANT(4′)-I; test: Antibacterial activity, clinical isolate AG039; type: cell-based
# In short: as §1
# [8] = system: human mitochondrial ribosomes; test: in-vitro translation assay, human mitochondrial (human chimeric) ribosomes; type: biochemical
# In short: as §3
# [9] = system: E. coli AG153 AAC(3)-II APH(3′)-II rmtB; test: Activity against G1405-methylated 16S-rRNA, clinical isolate AG153; type: cell-based
# In short: as §2
# [10] = system: clinical isolates carrying APH(3′)-II; test: MIC broth microdilution, APH(3′)-II; type: cell-based; conditions: clinical isolates, IMM Univ. Zurich; APH(3′)-II; read-out: MIC APH(3′)-II
# [11] = system: AG215, Klebsiella pneumonia; test: MIC reference strain AG215; type: cell-based; conditions: Klebsiella pneumoniae, reference strain; read-out: MIC AG215 K. pneumonia
# In short: as §4
# AG055 E. coli WT = test: Antibacterial activity, clinical isolate AG055; type: cell-based; design: unit not given here
# In short: as §1
# AG038 MRSA = test: Antibacterial activity, clinical isolate AG038; type: cell-based; design: unit not given here
# In short: as §1
# [12] = system: A baum. AG227 APH(3′)-I armA; test: Activity against G1405-methylated 16S-rRNA, clinical isolate AG227; type: cell-based
# In short: as §2
# [13] = system: Engineered E. coli AG103 armA; test: Activity against G1405-methylated 16S-rRNA, E. coli AG103 armA; type: cell-based
# In short: as §2
# [14] = system: K. pneum. AG269 AAC(3)-II AAC(6′)-I rmtB; test: Activity against G1405-methylated 16S-rRNA, clinical isolate AG269; type: cell-based
# In short: as §2
# [15] = system: clinical isolates carrying APH(3′)-VI; test: MIC broth microdilution, APH(3′)-VI; type: cell-based; conditions: IMM Univ. Zurich
# [16] = system: clinical isolates carrying APH(3′)-I; test: MIC broth microdilution, APH(3′)-I; type: cell-based; conditions: IMM Univ. Zurich
# [17] = system: Engineered E. coli pH424 armA; test: Activity against G1405-methylated 16S-rRNA, E. coli pH424 armA; type: cell-based
# In short: as §2
# [18] = system: Engineered E. coli pH426 rmtC; test: Activity against G1405-methylated 16S-rRNA, E. coli pH426 rmtC; type: cell-based
# In short: as §2
# AG032 P. aer. APH(3′)-II = test: Antibacterial activity, clinical isolate AG032; type: cell-based; design: unit not given here
# In short: as §1
# [19] = system: AG220, Pseudomonas aeruginosa ATCC27853; test: MIC reference strain AG220; type: cell-based; conditions: Pseudomonas aeruginosa, ATCC27853, reference strain ATCC27853; read-out: MIC AG220 P. aeruginosa
# In short: as §4
# [20] = system: Engineered E. coli pH427 rmtF; test: Activity against G1405-methylated 16S-rRNA, E. coli pH427 rmtF; type: cell-based
# In short: as §2
# [21] = system: clinical isolates carrying AAC(3)-IV; test: MIC broth microdilution, AAC(3)-IV; type: cell-based; conditions: for MIC: clinical isolates, IMM Univ. Zurich, AAC(3)-IV, read-out: MIC AAC(3)-IV
# In short: (§5)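 Clinical isolates supplied by the Zurich Institute of Medical Microbiology were tested for MIC (μg/ml) using CLSI M07-A10 broth microdilution.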
# bacterial ribosomes = test: in-vitro translation assay, bacterial ribosomes; type: biochemical
# In short: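 Each ribosome preparation (bacterial, human chimeric as the mitochondrial model, rabbit reticulocyte as the cytosolic model) drives in-vitro translation with the test compound present. Inhibition of translation gives the IC50.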
# AG173 E. coli AAC(3)-IV = test: Antibacterial activity, clinical isolate AG173; type: cell-based
# In short: as §1
# [22] = system: Engineered E. coli pH430 WT; test: Activity, engineered E. coli pH430 WT; type: cell-based; conditions: wild type
# In short: as §2
# eukaryotic ribosomes = test: in-vitro translation assays, bacterial versus eukaryotic ribosomes; type: biochemical
# Excerpt: IC50 values for bacterial, human chimeric, and rabbit reticulocyte ribosomes have been determined by in-vitro translation assays as described previously (Proc. Nat. Ac. Sci USA 2012, 109(27):10984-10989).
# [23] = system: clinical isolates carrying APH(3′)-III; test: MIC broth microdilution, APH(3′)-III; type: cell-based; conditions: IMM Univ. Zurich
# [24] = system: AG042 MRSA AAC(6′)-I ANT(4′)-I APH(2′); test: Antibacterial activity, clinical isolate AG042; type: cell-based; design: unit not given here
# In short: as §1
# [25] = system: AG290, Enterobacter cloacae; test: MIC reference strain AG290; type: cell-based; conditions: Enterobacter cloacae; reference strain; read-out: MIC AG290 E. cloacae
# In short: as §4
# [26] = system: AG033 P. aer. APH(3′)-II AAC(6′)-I; test: Antibacterial activity, clinical isolate AG033; type: cell-based; design: unit not given here
# In short: as §1
# isolates carrying apmA = test: MIC broth microdilution, apmA; type: cell-based
# In short: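 Clinical isolates carrying apmA, from the University of Zurich Institute of Medical Microbiology, were tested by broth microdilution following CLSI M07-A10; values are MICs in μg/ml.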
# N. gonorrhoeae = test: Disk diffusion N. gonorrhoeae; type: cell-based
# WT clinical isolates = test: MIC broth microdilution, WT; type: cell-based; conditions: read-out: MIC WT, clinical isolates, IMM Univ. Zurich; wild type
# In short: as §5
SMILES,Antibacterial activity AG031 P. aer. APH(3′)-II (AG031 P. aer. APH(3′)-II),Activity E. coli pH425 rmtB [1],Antibacterial activity AG003 E. coli AAC(3)-II (AG003 E. coli AAC(3)-II),IC50 [2],Antibacterial activity AG001 E. coli WT (AG001 E. coli WT),MIC [3],MIC [5],Antibacterial activity AG039 MRSA AAC(6′)-I ANT(4′)-I [7],IC50 [8],MIC [11],Antibacterial activity AG055 E. coli WT (AG055 E. coli WT),Antibacterial activity AG038 MRSA (AG038 MRSA),Activity E. coli pH424 armA [17],Activity E. coli pH426 rmtC [18],Antibacterial activity AG032 P. aer. APH(3′)-II (AG032 P. aer. APH(3′)-II),MIC [19],Activity E. coli pH427 rmtF [20],MIC [21],IC50 (bacterial ribosomes),Antibacterial activity AG173 E. coli AAC(3)-IV (AG173 E. coli AAC(3)-IV),also measured
"CNC1C(OC2OC(CO)C(N)C(O)C2O)OC2CC(N)C(OC3C(N)CC(N)C(O)C3OC3OC(CO)C(OCCN)C3O)OC2C1O [DC124, 5-O-β-(3′″-O-(2-Aminoethyl)-D-ribofuranosyl) apramycin]",32-64,4,4-8,181 µM,8,2 µg/mL,8 µg/mL,8,57 µM,1 to 2 µg/mL,8,8-16,1,2,32-64,16 to 32 µg/mL,2,> 32 µg/mL,0.06 µM,4,"Antibacterial activity AG163 E. coli APH(3′)-I (AG163 E. coli APH(3′)-I): 4-8; Activity Enterob. AG302 AAC(3)-II AAC(6′)-I rmtC [4]: 4; MIC (ATCC19977 M. abcessus): 8 µg/mL; susceptibility to the APH(3′, 5″) resistance determinant [6]: susceptible; Activity E. coli AG153 AAC(3)-II APH(3′)-II rmtB [9]: 4; MIC [10]: 2 µg/mL; Activity A baum. AG227 APH(3′)-I armA [12]: 16; Activity E. coli AG103 armA [13]: 0.5; Activity K. pneum. AG269 AAC(3)-II AAC(6′)-I rmtB [14]: 2; MIC [15]: 4 µg/mL; MIC [16]: 64 µg/mL; activity against the IMM clinical isolates carrying the gene for AAC(3)-IV [21]: excellent antiribosomal and antibacterial activity; Activity E. coli pH430 WT [22]: 2; activity against eukaryotic ribosomes (eukaryotic ribosomes): only low activity; selectivity at the target level (eukaryotic ribosomes; bacterial versus eukaryotic ribosomes): excellent selectivity; MIC [23]: 0.5 µg/mL; Antibacterial activity AG042 MRSA AAC(6′)-I ANT(4′)-I APH(2′) [24]: 8; MIC [25]: 1 to 2 µg/mL; Antibacterial activity AG033 P. aer. APH(3′)-II AAC(6′)-I [26]: 128"
"CNC1C(OC2OC(CO)C(N)C(O)C2O)OC2CC(N)C(OC3C(N)CC(N)C(O)C3O)OC2C1O (stereo not drawn) [DC161, 5-Epi-apramycin]",4,2,4-8,17 µM,4,2 µg/mL,2 µg/mL,4,20 µM,1 µg/mL,4,4,2,2,4,2 µg/mL,2,> 32 µg/mL,0.05 µM,64,MIC (ATCC19977 M. abcessus; reference strain): 0.5 µg/mL; circumvention of the resistance mechanism apmA (isolates carrying apmA): circumvent the resistance mechanism apmA; MIC (isolates carrying apmA; apmA resistance gene): 2 µg/mL; Disk diffusion 25 nmol N. gonorrhoeae (N. gonorrhoeae): 10 mm; Activity E. coli pH430 WT [22]: 2; Antibacterial activity AG042 MRSA AAC(6′)-I ANT(4′)-I APH(2′) [24]: 2-4; MIC [25]: 2 µg/mL; Antibacterial activity AG033 P. aer. APH(3′)-II AAC(6′)-I [26]: 8; MIC (WT clinical isolates): 2 µg/mL

# Reference: patent US11485751B2, “Apramycin derivatives” (WAYNE STATE UNIVERSITY, priority 2017, dated 2022)
